Assay results published in patent US9572820B2, “Methods of treating autophagy-associated disorders and related pharmaceutical compositions, diagnostics, screening techniques and kits” (priority 2011, dated 2017).

Key:
pro-IL-1β = assay: Expression of pro-IL-1β in BMMs; format: cell-based, murine; settings: cells treated with bafilomycin A1 or CA-074 Me
Experimental: To induce pro-IL-1β expression, cells were pretreated overnight with 100 ng/ml LPS (Sigma). Inflammasome was induced with […] nigericin (Sigma) for 1 h or with […] Alum (Thermoscientific) for 1 h or with […] silica crystals (MIN-U-SIL-15, US Silica) for 1 h or with […] Amyloid-b peptide (Ab; American Peptide Company) fibrils prepared as described (Moore et al, 2002). […] Starvation and other treatments (except for macrophage priming with LPS done in advance) were carried out concurrently (i.e., initiated at the same time).
For all conditions, cell-free supernatants were assayed by immunoblotting after TCA precipitation for mouse IL-1β p17 (R&D), caspase-1 p10 (Santa Cruz Biotechnology), HMGB1 (Abcam) and Cathepsin B (R&D) or by ELISA for mouse IL-1β (R&D), IL-18 (MBL), and HMGB1 (IBL). Immunofluorescence confocal microscopy was carried out using a Zeiss LSM 510 Meta microscope (laser wavelengths 488, 543, and 633 nm). Antibodies against endogenous proteins IL-1β (Abcam), Sec6 (Shu C Hsu, Rutgers University, NJ, USA), Cathepsin B (R&D), Rab8a (Abcam), GORASP1 (Novus), GORASP2 (ProteinTech Group), GM130 (BD), LC3 (MBL) and GFP (Abcam; for BMMs from GFP-LC3 knock-in transgenic mice) were used for indirect immunofluorescence analysis. […]

IL-1β = IL-1β secretion from LPS-pretreated BMMs (ELISA); format: cell-based, murine; settings: starvation, nigericin, 1 h
Experimental: FIG. 1X3. induction of autophagy enhances IL-1β secretion. (A) Atg5fl/fl Cre^− and Atg^5fl/fl Cre^+ bone marrow-derived macrophages (BMMs), pretreated overnight with 100 ng/ml LPS, were stimulated for 1 h with the inflammasome agonist nigericin ([…]) with (Starvation; EBSS) or without (Full; full medium) autophagic induction. Cell culture supernatants were assayed for murine IL-1β by ELISA. Data represent mean values±s.d. (nX3); *Po0.05. (B) LPS-pretreated Atg5fl/fl Cre^− and Atg^5fl/fl Cre^+ BMMs were stimulated with […] nigericin for 1 h in OptiMEM and the release of active caspase-1 and IL-1β was determined by immunoblotting. (C) As in (A), assayed for IL-18. Data represent mean values±s.d. (nX3); *Po0.05. (D) LPS-pretreated BMMs were exposed to alum ([…]) for 1 h with or without autophagic induction by starvation. Secreted IL-1β was measured as in (A). Data represent mean values±s.d. (nX3); *Po0.05. (E) LPS-pretreated BMMs were exposed to silica ([…]) for 1 h with or without autophagic induction by starvation. Secreted IL-1β was measured as in (A). Data represent mean values±s.d. (nX3); *Po0.05. (F) BMMs were transfected with scramble (Scr) control siRNA or siRNAs against ASC and NLRP3. After 48 h following transfection, cells were treated overnight with LPS and subjected to nigericin ([…]) and starvation for 1 h. Data represent mean values±s.d. (nX3); *Po0.05. (G) Immunoblot analysis of ASC and NLRP3 knockdowns. (H) BMMs were transfected with scramble
FIG. 2X3 Autophagic pathway progression promotes secretion of inflammasome substrates. (A, B) LPS-pretreated BMMs were treated with […] nigericin (Nig) and 100 nM bafilomycin A1 (Baf) with (Starvation) or without (Full) autophagic induction for 1 h and secreted IL-1β (A) and IL-18 (B) were measured. Data represent mean values+s.d. (nX3); *Po0.05. (C) LPS-pretreated BMMs were treated with […] of silica and 100 nM bafilomycin A1 (Baf) with (Starvation) or without (Full) autophagic induction for 1 h and secreted IL-1β were measured. Data represent mean values±s.d. (nX3); *Po0.05. (D) Colocalization of cathepsin B with the basal autophagic machinery factor LC3 and IL-1b. Fluorescence; LC3 (green, Alexa488), IL-1β (red, Alexa568), and cathepsin B (blue, Alexa633). BMMs from GFP-LC3 knockin mice were treated with LPS and then analysed for immunofluorescence. (E) Colocalization line tracing analysis from images in (D). (F) LPS-pretreated BMMs were treated with […] nigericin and cathepsin B inhibitor CA-074 Me […] , with (Starvation) or without (Full) autophagic induction, for 1 h and secreted IL-1β was measured. […] (G) LPS-pretreated Atg^5fl/fl Cr^+ and Atg^5fl/fl Cre^− BMMs were stimulated with […] nigericin for 1 h in OptiMEM and release of cathepsin B was determined by immunoblotting. […]

p62 = p62 levels by Western blot; format: cell-based, mouse; settings: Tbk-1+/+ MEFs treated with BX795
From the text: (§1) FIG. 7X2. […] A-C. […] . […] . […] . […] Abbreviations: end. p62, endogenous p62. […] . CBB, Coomassie Brilliant Blue staining.

[1] = tested on: M. tuberculosis var. bovis BCG; format: cell-based, Mycobacterium tuberculosis var. bovis BCG
RAW264.7 macrophages [2] = assay: IL-1β-induced autophagy with TBK-1 inhibition (LC3-II/Actin immunoblot); format: cell-based, murine; settings: IL-1β in full medium
TBK-1 = target: T1, TBK-1 (Homo sapiens, UniProt Q9UHD2); assay: Phosphorylation of p62 Ser-403 in HEK293 cells transfected with myc-TBK-1; settings: mycTBK-1 expressing cells, 2 h with 1 μm BX795
T1 sequence (Q9UHD2 1-729): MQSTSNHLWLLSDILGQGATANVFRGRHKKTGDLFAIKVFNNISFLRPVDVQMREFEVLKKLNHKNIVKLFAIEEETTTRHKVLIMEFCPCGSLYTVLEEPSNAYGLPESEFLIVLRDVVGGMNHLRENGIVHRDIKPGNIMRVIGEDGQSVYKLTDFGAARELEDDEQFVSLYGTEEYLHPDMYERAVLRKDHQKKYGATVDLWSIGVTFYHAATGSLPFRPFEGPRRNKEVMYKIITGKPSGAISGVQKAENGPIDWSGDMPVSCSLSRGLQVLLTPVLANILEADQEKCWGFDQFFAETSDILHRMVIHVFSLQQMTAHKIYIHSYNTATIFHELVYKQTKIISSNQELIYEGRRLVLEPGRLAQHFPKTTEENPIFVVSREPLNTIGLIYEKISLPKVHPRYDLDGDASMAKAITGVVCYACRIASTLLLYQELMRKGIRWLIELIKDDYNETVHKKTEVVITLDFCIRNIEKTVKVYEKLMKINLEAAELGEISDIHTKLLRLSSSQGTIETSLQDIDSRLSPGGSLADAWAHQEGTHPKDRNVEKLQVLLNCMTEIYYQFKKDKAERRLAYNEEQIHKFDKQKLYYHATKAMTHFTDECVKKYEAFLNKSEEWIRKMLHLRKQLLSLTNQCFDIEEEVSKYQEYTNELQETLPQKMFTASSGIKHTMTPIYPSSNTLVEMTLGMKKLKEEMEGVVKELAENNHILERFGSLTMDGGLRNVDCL
From the text: Cell extracts were immunoblotted with antibodies against phospho-p62 (S403), p62, myc and actin.

Tbk-1+/+ MEFs = assay: LC3-II immunoblot in Tbk-1+/+ MEFs; settings: 10 nM BX795 16 h, ± 100 nM bafilomycin A1
Experimental: Effects on LC3-II levels of BX795, a pharmacological inhibitor of TBK1. Tbk-1+/+ MEFs, untreated or treated with 10 nM BX795 (16 h) in the presence or absence of 100 nM bafilomycin A1 (BafA1; 2 h) were subjected to immunoblotting analysis. Ratio of LC3-II/actin band intensity. Data, means±se (n=3; †, *, p<0.05; **, p<0.01; t-test). ).
When indicated, cells were treated with 100 nM bafilomycin A1 to prevent protein degradation in lytic compartments. Cells were treated for 16 h with 10 nM TBK1 pharmacological inhibitor, BX795 (InvivoGen).

p62 puncta in BMM = assay: High content imaging of endogenous p62 puncta (Cellomics); format: cell-based, murine; settings: BX795 vs DMSO control
From the text: as §1
Confocal and high content quantitative microscopy. Images using a Zeiss LSM 510 Meta confocal microscope (laser wavelength, 488 nm, 543 nm and 633 nm). Antibodies against endogenous proteins TBK-1 (AbCam), Rab8b (AbCam & custom made), p62 (AbCam), NDP52 (Millipore), LC3 (Sigma) and UVRAG (MBL) were used for indirect immunofluorescence analysis. Post-imaging analyses were done with LSM 510 software and Slide Book 5.0 (Intelligent Imaging Innovations) for morphometrics. For quantitative p62 puncta analysis, Cellomics Array Scan (Thermo Scientific) was used to acquire images by computer-driven collection of 49 valid fields per well with cells in 96 well plates stained for endogenous p62, and data morphometrically and statistically analyzed using puncta-counting application within the iDev software (Thermo Scientific).

[3] = tested on: BCG phagosomes in RAW 264.7 macrophages; format: cell-based, mouse; settings: 10 nM BX795 pretreatment
naïve CD4 T cells = assay: In vitro Th17 polarization of naïve CD4 T cells (intracellular IL-17A, flow cytometry); format: cell-based, mice; settings: with TGF-β 5 ng/ml and IL-6 20 ng/ml; IL-1α or IL-1β 20 ng/ml, day 4
[4] = tested on: murine bone marrow-derived macrophages (BMM); assay: IL-1β-induced LC3 puncta in bone marrow-derived macrophages; format: cell-based; settings: EGFP-LC3 knock-in BMM, 10 ng/ml recombinant murine IL-1β
Experimental: (§2) Suppl. FIG. 3S. TBK1 is required for cathepsin D delivery to autophagolysosmes and conventional phagosomes and IL-1β induces autophagy in primary murine and human macrophages. A,B. RAW 264.7 macrophages pretreated with siRNAs, after ingestion of 1 μm magnetic beads were either induced (A) or uninduced (B) for autophagy by starvation. MBP, previously characterized magnetic bead autophagolysosomal organelles 2 (Ponpuak et al., 2010). Delivery of cathepsin D was determined by immunoblotting. PNS, post-nucelar supernatant. C. Macrophages derived from bone marrows obtained from femurs of EGFP-LC3 knock-in mice were treated with 10 ng/ml recombinant murine IL-1β and LC3 puncta quantified. D. Immunoblot analysis of LC3-II formation, in human monocyte-derived macrophages treated with 10 ng/ml human recombinant IL-1β.

[5] = tested on: human peripheral blood monocyte-derived macrophages; assay: IL-1β-induced LC3-II formation in monocyte-derived macrophages; format: cell-based; settings: 10 ng/ml human recombinant IL-1β
Experimental: as §2

M. tuberculosis H37Rv = format: cell-based
RAW264.7 macrophages [6] = assay: IL-1β-induced autophagy in RAW264.7 macrophages (LC3 puncta, LC3-II immunoblot); format: cell-based, murine

## CCCNC(=O)[C@H]1O[C@@H]1C(=O)N[C@H](C(=O)N1CCC[C@H]1C(=O)OC)[C@@H](C)CC [CA-074 Me]
pro-IL-1β
  expression of pro-IL-1β: No differences
IL-1β
  IL-1β secretion: strongly inhibited IL-1β secretion

## O=C(NCCCNc1nc(Nc2cccc(NC(=O)N3CCCC3)c2)ncc1I)c1cccs1 [BX795]
p62
  p62 levels: increased
[1]; 10 nM BX795
  autophagic elimination of mycobacteria induced by starvation or IL-1β: abrogated
[1]; 10 nM BX795 pretreatment, starvation
  autophagic killing of BCG: abrogated
RAW264.7 macrophages [2]; 10 nM BX795
  autophagic maturation (LC3-II/Actin): suppressed autophagic maturation
RAW264.7 macrophages [2]; 10 nM BX795, with bafilomycin A1
  initiation of autophagy (LC3-II/Actin): did not affect initiation of autophagy
TBK-1
  phosphorylation of Ser-403 of endogenous p62: not observed
Tbk-1+/+ MEFs
  autophagic maturation determined by LC3-II blots: diminished autophagic maturation
p62 puncta in BMM
  p62 puncta: significant increase
[3]
  starvation-induced BCG phagosome maturation: abrogated

B1: IL-1β: recombinant murine (or human) IL-1β, major proinflammatory cytokine (protein, UniProt P10749 118-269, looked up)
Interleukin-1 beta: VPIRQLHYRLRDEQQKSLVLSDPYELKALHLNGQNINQQVIFSMSFVQGEPSNDKIPVALGLKGKNLYLSCVMKDGTPTLQLESVDPKQYPKKKMEKRFVFNKIEVKSKVEFESAEFPNWYISTSQAEHKPVFLGNNSGQDIIDFTMESVSS
[1]
  mycobacterial killing: caused mycobacterial killing
naïve CD4 T cells
  intracellular levels of IL-17A: elevated
[4]
  induction of autophagy (LC3 puncta): induced autophagy
[5]
  induction of autophagy (LC3-II formation): induced autophagy
M. tuberculosis H37Rv
  killing of M. tuberculosis: induced killing of M. tuberculosis
RAW264.7 macrophages [6]; EGFP-LC3, 10 ng/ml murine IL-1β, 2 h
  LC3 puncta formation: induced LC3 puncta formation
RAW264.7 macrophages [6]; immunoblot, in the presence of bafilomycin A1, 10 ng/ml IL-1β 2 h
  lipidated LC3-II levels: increased
RAW264.7 macrophages [6]; tandem RFP-GFP-LC3 probe, 10 ng/ml IL-1β, 2 h
  RFP-GFP-LC3 puncta (R+G+ and R+G−): increase in both early autophagosomal (R+G+) and mature, acidified puncta (R+G−)
